Assays:
Assay type in all cases: biochemical
[1] = biological target: T1, Gox0644 (Gluconobacter oxydans, UniProt Q5FT75); test: Enzyme kinetics (Lineweaver-Burk plots), Gox0644; details: NADPH-dependent reduction
Experimental: (§1) Determination of pH and temperature optima and enzyme kinetics: The optimum pH for enzyme activities was determined by a modified method of Salusjärvi, T. et al., Appl. Microbiol. Biotechnol. 65:306-314 (2004) using the following buffer system (50 mM final concentration each): sodium acetate pH 4.5 - 6.5, potassium phosphate pH 6.5 - 8.0, Tris-HCl pH 8.0 - 10. Temperature optima for the biocatalysts were determined under standard reaction conditions at temperatures ranging from 20 - 80 °C. The Michaelis constant (Km) for the proteins was determined from purified enzyme by Lineweaver-Burk plots. Assays were performed at optimum pH for each enzyme and at 30 °C using the top substrate and a targeted substrate. The Km for each substrate was calculated using concentrations of 0.0025 to 10 mM, and the Km NAD(P)H and NAD(P) was calculated using concentrations of 0.01 to 0.5 mM
(§2) The Michaelis constants were determined from purified enzyme by Lineweaver-Burk plots. The Km and Vmax values for the substrates were calculated using concentrations of 0.025 to 10 mM, The optimal pH values and temperatures for enzyme activities are also shown in Tab. 11. Tab. 11: Summary of kinetic parameters

[2] = biological target: T2, Gox1615 (Gluconobacter oxydans, UniProt Q5FQJ0); test: Regioselectivity of bioconversion, product determined by NMR, Gox1615; details: bioconversion with Gox1122 cofactor regeneration, NMR analysis
T2 sequence (Q5FQJ0 1-332): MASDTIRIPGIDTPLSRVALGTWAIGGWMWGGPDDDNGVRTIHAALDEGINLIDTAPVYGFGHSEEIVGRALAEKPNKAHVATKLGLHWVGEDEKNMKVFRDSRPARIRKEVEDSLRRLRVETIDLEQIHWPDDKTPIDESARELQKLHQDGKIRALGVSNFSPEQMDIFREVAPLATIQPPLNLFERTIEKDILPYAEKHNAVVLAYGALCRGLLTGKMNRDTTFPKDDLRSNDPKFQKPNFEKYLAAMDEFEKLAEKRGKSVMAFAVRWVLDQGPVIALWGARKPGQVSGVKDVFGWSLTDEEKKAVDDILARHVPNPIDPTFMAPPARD
Text: Cofactor regeneration: A prerequisite for the production of α-hydroxycarbonyl compounds is the regeneration of the expensive coenzymes and the stability of the protein catalysts. By coupling two coenzyme-dependent enzyme reactions, NADPH can be continuously regenerated. […] For this purpose, we used a combined enzymatic reaction between the NADPH-dependent oxidoreductases that form α-hydroxycarbonyl compounds and the aldehyde dehydrogenase GOX1122 (see Schweiger, P. et al., J. Mol. Microbiol. Biotechnol. 13:147-155 (2007)) that produces the reduced cofactor in the course of acetaldehyde oxidation. […] The biotransformation was performed in a batch process (total volume 2.5 ml 40 mM potassium phosphate buffer pH 7). 30 µg of purified Gox1122 and of NADPH-dependent oxidoreductases and 50 µM NADPH were added. The substrate concentration in the beginning was 20 mM 2,3-pentanedione and 20 mM acetaldehyde. Fresh substrates were added every 60 min (20 mM each).
NMR: The 2.5 ml bioconversion was extracted with two times equal volume of d-chloroform. ^1H and ^13C NMR spectra were recorded on a DPX 300 Spectrometer (300 MHz) and referenced to the CDCl3 internal standard. Chemical samples analyzed with Bruker NMR Suite 2.5 software constructed final product structures.
2.7 Regioselectivity of GOX0644 and GOX1615: Tab. […] Tab. 10: Summary of Regioselectivity
The reduced NADPH was oxidized in the reduction of phenylglyoxal to 2-hydroxy-2-phenyl-acetaldehyde by protein Gox1615. 5 ml bioconversions for determining regioselectivity were set up with 2 mg of proteins Gox1615 and Gox1122, 40 mM potassium phosphate buffer, pH 7.0, 50 µM NADPH. Substrates (20 mM phenylglyoxal and acetaldehyde) were added every 30 min. The reaction was followed for 3 h to produce quantities between 40-60 mg of product (2-phenyl-2-hydroxyaldehyde).

[3] = biological target: T1, Gox0644; test: Gox0644 acetaldehyde tolerance test
Text: 3.1. […] By coupling two coenzyme-dependent enzyme reactions, NADPH can be continuously regenerated. […] For this purpose, a combined enzymatic reaction was used between the NADPH-dependent oxidoreductases that form α-hydroxy carbonyl compounds and the aldehyde dehydrogenase GOX1122 that produces the reduced cofactor in the course of acetaldehyde oxidation. […] The products derived from the α-diketone and α-ketoaldehyde substrate reaction were generated according to the cofactor regeneration protocol. […] In both the reactions with phenylglyoxal and 2,3 pentanedione, Gox0644 activity remained similar to the control reaction consisting of a reaction without acetaldehyde (Tab. 12/13). […] In the reaction with 2,3 pentanedione there was a slight decrease of about 20% from the control, however, the activity levels were still very high at 66.8 U/mg. […] Table 12: Gox0644 acetaldehyde tolerance tests with phenylglyoxal

[4] = biological target: T2, Gox1615; test: Enzyme kinetics (Lineweaver-Burk plots), Gox1615; details: NADPH-dependent reduction
Experimental: as §1, §2

In the case of CCC(=O)C(C)=O [2,3-pentanedione], the Vmax [1] is reported as 79 U/mg protein, the “Product (regioselective reduction)” value [2] is reported as 2-hdrox-pentane-3-one and the activity levels ([3]; Gox0644 with 2,3 pentanedione, high concentration of acetaldehyde) is reported as 66.8 U/mg. It also gave a Gox0644 activity ([3]; substrate 2,3-pentanedione, Control (without acetaldehyde)) of 87.6 U/mg, a Gox0644 activity ([3]; substrate 2,3-pentanedione, acetaldehyde 10mM) of 90.5 U/mg and a Gox0644 activity ([3]; substrate 2,3-pentanedione, acetaldehyde 30mM) of 79.3 U/mg. It also gave a Gox0644 activity ([3]; substrate 2,3-pentanedione, acetaldehyde 50mM) of 66.8 U/mg.
O=CC(=O)c1ccccc1 [phenylglyoxal] was tested, and the Vmax [1] was 93 U/mg protein, the “Product (regioselective reduction)” value [2] was 2-hydroxy-2-phenyl-acetaldehyde and the “Product (regioselective reduction)” value ([2]; listed as Phenylglyoxal) was 2-hydroxy-2-phenylacetaldehyde. It also gave a Gox0644 activity ([3]; substrate phenylglyoxal, Control (without acetaldehyde)) of 38.5 U/mg, a Gox0644 activity ([3]; substrate phenylglyoxal, acetaldehyde 10mM) of 29.6 U/mg and a Gox0644 activity ([3]; substrate phenylglyoxal, acetaldehyde 30mM) of 37.1 U/mg. For the same molecule, the Gox0644 activity ([3]; substrate phenylglyoxal, acetaldehyde 50mM) was 39.3 U/mg and the Gox0644 activity ([3]; substrate phenylglyoxal, acetaldehyde 100mM) was 31.2 U/mg.
CCCC(=O)C(C)=O [2,3-hexanedione] showed a Vmax [4] of 6 U/mg protein.
In the case of CC(=O)C=O [methylglyoxal], the Vmax [4] is reported as 22 U/mg protein.
